According to patent publication US20040191208A1, “Cosmetic composition for men's skin care and hair care” (Laboratoires Clarins, a corporation of France, priority 2001, published 2004):

Legend:
[1] = system: synthesis of prostaglandins (PGE2); test: PGE2 synthesis induced by PMA in cultured keratinocytes (approach 2), ELISA, evaluating inhibition of cyclooxygenase; assay type: cell-based, human; conditions: indomethacin 1 μM
From the text: (§1) In the initial steps of the induction of inflammation, the arachidonic acid stored in the cell membranes is liberated. Once the arachidonic acid has been liberated, it can follow different metabolic pathways. The pathways include: the cyclooxygenase enzyme pathway which leads to the prostaglandins, and the lipoxygenase enzyme pathway which leads to the leukotrienes. The anti-inflammatory activity of purslane extract was, therefore, tested in vitro by evaluating the inhibition of cyclooxygenase. The ELISA-based test employed made it possible to monitor the synthesis of prostaglandins (PGE2) in cultures of human keratinocytes. The cells were used at subconfluence with a cellular multiplication and an active metabolic activity. Two approaches were employed: approach 1: synthesis of the PGE2 intrinsic to the cultured cells; and approach 2: synthesis of the PGE2 induced chemically by PMA (phorbol myristate acetate), an inflammatory agent. Normal human keratinocytes were cultured at 37° C. for 48 hours in a defined medium in the presence of the following products: approach 1: -purslane extract (0.1%, 0.5%, 1% and 3% vol/vol) - aspirin 100 μM (anti-inflammatory, reference compound) approach 2: - purslane extract (0.1%, 0.5%, 1% and 3% vol/vol) - indomethacin 1 μM (anti-inflammatory, reference compound) - stimulation with PMA 1 μg/ml (after 24 hours of incubation). At the end of 48 hours, the different media were collected for quantitative determination of the PGE2. The protective capacity against the liberation of prostaglandins induced by the pro-inflammatory agent PMA was studied using approach 2.

[2] = system: synthesis of prostaglandins (PGE2); test: PGE2 synthesis intrinsic to cultured keratinocytes (approach 1), ELISA, evaluating inhibition of cyclooxygenase; assay type: cell-based, human; conditions: aspirin 100 μM
From the text: as §1, with “PGE2.” for “PGE2. The protective capacity against the liberation of prostaglandins induced by the pro-inflammatory agent PMA was studied using approach 2.”

| Compound | inhibition at 1 µM ([1]; Homo sapiens, Keratinocyte, PMA-induced PGE2, read-out: % inhibition of the liberation of PGE2) | % control ([1]; PGE2 relative to control, PMA-induced) | Pg PGE2/mg prot ([1]; PMA 1 μg/ml stimulation after 24 h, 48 h) | % inhibition of the liberation of PGE2 ([1]; PMA-induced PGE2) | inhibition at 100 µM ([2]; Homo sapiens, Keratinocyte, intrinsic PGE2, 48 h, read-out: % inhibition of the liberation of PGE2) | % control ([2]; PGE2 relative to control, intrinsic PGE2, 48 h) | Pg PGE2/mg prot ([2]; normal human keratinocytes, 48 h, intrinsic PGE2) |
| --- | --- | --- | --- | --- | --- | --- | --- |
| COc1ccc2c(c1)c(CC(=O)O)c(C)n2C(=O)c1ccc(Cl)cc1 [Indomethacin, indomethacin] | 80% | 21.0% | 1683.9 Pg PGE2/mg prot | 79.0% |  |  |  |
| CC(=O)Oc1ccccc1C(=O)O [Aspirin, aspirin] |  |  |  |  | 60.3% | 39.7% | 1968.2 Pg PGE2/mg prot |
